Experimental findings from patent publication US5270322A, “Imidazo[1,2-a]pyridines, pharmaceutical compositions containing these compounds and processes for preparing them” (Dr. Karl Thomae GmbH, priority 1992, dated 1993) are described below.

For this assay, the target named is T1, Angiotensin II-Receptor (Rattus norvegicus, UniProt P25095).
T1 construct: The tissue (rats lung) is homogenised in Tris-buffer; from tissue; host or cells: rat lung homogenate
T1 sequence (P25095 1-359): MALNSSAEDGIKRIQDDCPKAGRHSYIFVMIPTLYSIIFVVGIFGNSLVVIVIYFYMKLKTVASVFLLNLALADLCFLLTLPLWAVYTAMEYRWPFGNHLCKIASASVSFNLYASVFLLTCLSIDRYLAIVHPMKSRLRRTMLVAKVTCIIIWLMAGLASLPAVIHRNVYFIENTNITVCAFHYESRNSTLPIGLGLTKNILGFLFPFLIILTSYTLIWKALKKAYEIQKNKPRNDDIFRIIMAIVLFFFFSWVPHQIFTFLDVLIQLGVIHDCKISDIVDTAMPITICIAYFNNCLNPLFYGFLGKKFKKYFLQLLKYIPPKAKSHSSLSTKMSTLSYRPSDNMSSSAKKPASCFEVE
Briefly: Angiotensin II-Receptor Bonding. It is filed as binding. As to conditions: rats lung homogenate; 50 pM [125I]-angiotensin II; 60 minutes at 37° C.; pH 7.40. On the procedure: Description of Method: Angiotensin II-Receptor Bonding
The tissue (rats lung) is homogenised in Tris-buffer (50 mMol Tris, 150 mMol NaCl, 5 mMol EDTA, pH 7.40) and centrifuged twice for 20 minutes at 20,000×g. The finished pellets are resuspended in incubating buffer [, (50 mMol Tris, 5 mMol MgC12, 0.2% BSA, pH 7.40) 1:75, based on the moist weight of the tissue. Each 0.1 ml of homogenate is incubated for 60 minutes at 37° C. with 50 pM [^125 I]-angiotensin II (NEN, Dreieich, FRG) with increasing concentrations of the test substance in a total volume of 0.25 ml. Incubation is ended by rapid filtration through glass fibre filter mats. The filters are each washed with 4 ml of ice cold buffer (25 mMol Tris, 2.5 mMol MgCl2, 0.1% BSA, pH 7.40). The bound radioactivity is measured using a gamma-counter. The corresponding IC50 value is obtained from the dose-activity curve.
Broadly, the IC50 is the point on the concentration scale where inhibition reaches its midpoint. Low readings indicate greater potency, high ones weaker potency. In turn, `CCc1cn2c(C(O)c3ccc(-c4ccccc4C(=O)O)cc3)ccc(C)c2n1` (racemic) [Substance A, (R,S)-2-ethyl-8-methyl-5-[α-(2'-carboxybiphenyl-4-yl)-α-hydroxy-methyl]imidazo[1,2-a]pyridine] showed an IC50 of 46 nM.

As to `CCc1cn2c(C(OC(C)=O)c3ccc(-c4ccccc4C(=O)O)cc3)ccc(C)c2n1` (racemic) [Substance B, (R,S)-2-ethyl-8-methyl-5-[α-(2'-carboxybiphenyl-4-yl)-α-acetoxy-methyl]imidazo[1,2-a]pyridine], inhibition was half-maximal at 30 nM (IC50).

`CCc1cn2c(C(OC(=O)NC3CCCCC3)c3ccc(-c4ccccc4C(=O)O)cc3)ccc(C)c2n1` (racemic) [Substance C, (R,S)-2-Ethyl-8-methyl-5-[α-(2'-carboxybiphenyl-4-yl)-α-cyclohexylaminocarbonyloxy-methyl]imidazo[1,2-a]pyridine]: the IC50 stood at 230 nM.

`CCCc1cn2c(C(O)c3ccc(-c4ccccc4C(=O)O)cc3)ccc(C)c2n1` (racemic) [Substance D, (R,S)-2-n-Propyl-8-methyl-5-[α-(2'-carboxybiphenyl-4-yl)-α-hydroxy-methyl]imidazo[1,2-a]pyridine-hydrate] returned an IC50 of 420 nM.
